Data from US8431704B2, “Quinoline or isoquinoline substituted P2X7 antagonists” (Janssen Pharmaceutica NV, priority 2008, dated 2013).

Target: T1, hP2X7 (Homo sapiens, UniProt Q99572)
T1 construct: expressed in transfected cells; host or cells: 1321N1 astrocytoma cells
T1 sequence (Q99572 1-595): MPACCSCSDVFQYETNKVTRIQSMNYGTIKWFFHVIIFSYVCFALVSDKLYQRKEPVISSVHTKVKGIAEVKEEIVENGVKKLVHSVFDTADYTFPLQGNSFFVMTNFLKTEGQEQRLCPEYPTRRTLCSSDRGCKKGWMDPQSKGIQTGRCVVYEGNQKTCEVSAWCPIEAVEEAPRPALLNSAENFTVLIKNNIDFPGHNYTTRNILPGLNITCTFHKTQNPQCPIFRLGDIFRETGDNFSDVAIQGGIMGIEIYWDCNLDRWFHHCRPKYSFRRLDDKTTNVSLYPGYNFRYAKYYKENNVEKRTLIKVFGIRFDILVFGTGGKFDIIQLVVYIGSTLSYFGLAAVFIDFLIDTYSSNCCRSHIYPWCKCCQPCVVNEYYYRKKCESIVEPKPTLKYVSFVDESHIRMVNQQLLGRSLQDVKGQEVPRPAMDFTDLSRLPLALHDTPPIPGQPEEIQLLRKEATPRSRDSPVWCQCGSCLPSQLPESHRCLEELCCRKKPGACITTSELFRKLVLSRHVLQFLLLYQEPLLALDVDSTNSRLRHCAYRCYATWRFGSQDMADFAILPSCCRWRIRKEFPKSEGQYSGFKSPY
Assay: P2X7 antagonism: ligand-induced Ca2+ flux in 1321N1 astrocytoma cells overexpressing hP2X7
Assay type: cell-based
Details: pIC50 = -log(IC50), read-out: hP2RX7pIC50 (mean pIC50 values) (converted)
Description: Extracellular binding of ATP to P2X7 that is expressed in the cell-membrane opens the ligand gated cation channel and allows Ca^2+ entry into the cell. This ligand-induced Ca^2+ flux was measured in 1321N1 astrocytoma cells overexpressing hP2X7 for the compounds of the present invention.
The calcium assay kit used (Molecular Devices, R8090), provides a Ca^2+ sensitive dye together with a quenching dye. However, no specifications are given by the manufacturer. The kit most likely consists of a membrane permeable acetoxymethyl (AM) ester of a fluorescent Ca^2+ indicator, such as fluo-4 or fluo-3. Upon cellular uptake, the AM esters get cleaved by esterases, liberating the Ca^2+-sensitive dye which can then bind calcium. The dyes have an absorption spectrum compatible with excitation at 488 nm by argon laser sources and a large fluorescence intensity increase in response to Ca^2+ binding without an accompanying spectral shift. Emission wavelength is in the range of 510-560 nm.
The fluorescence, and thus the changes in intracellular [Ca^2+] in the 1321N1 cells was monitored in time before and after addition of the agonist. The effect of the antagonist was measured as % control and as IC50.

| Compound | IC50 |
| --- | --- |
| CC(C)N1CCN(c2ccc3c(C(=O)NCC(c4cnc(C5CCCC5)nc4)N4CCC(F)(F)CC4)cccc3n2)CC1 (stereo not shown) [Compound 213] | 100 nM |
| O=C(NCC(c1cnc(OC2CCC2)nc1)N1CCC(F)(F)CC1)c1cccc2nc(NC3CC3)ccc12 (stereo not shown) [Compound 214] | 33.9 nM |
| CC(C)N1CCN(c2ccc3c(C(=O)NCC(c4cnc(N5CCCC5)nc4)N4CCC(F)(F)CC4)cccc3n2)CC1 (stereo not shown) [Compound 215] | 174 nM |
| O=C(NCC(c1cnc(NC2CC2)nc1)N1CCC(F)(F)CC1)c1cccc2nc(N3CCCC3)ccc12 (stereo not shown) [Compound 216] | 100 nM |
| CCc1ncc(C(CNC(=O)c2cccc3nc(NCC4CC4)ccc23)N2CCC(F)(F)CC2)cn1 (stereo not shown) [Compound 217] | 47.9 nM |
| CN(C)c1ncc(C(CNC(=O)c2cccc3nc(N4CCCC4)ccc23)N2CCOCC2)cn1 (stereo not shown) [Compound 218] | 316 nM |
| O=C(NCC(c1cnc(N2CCCC2)nc1)N1CCOCC1)c1cccc2nc(N3CCCC3)ccc12 (stereo not shown) [Compound 219] | 126 nM |
| CCc1ncc(C(CNC(=O)c2cccc3nc(N4CCOCC4)ccc23)N2CCC(F)(F)CC2)cn1 (stereo not shown) [Compound 220] | 83.2 nM |
| CCc1ncc(C(CNC(=O)c2cccc3nc(NC4CC4)ccc23)N2CCC(F)(F)CC2)cn1 (stereo not shown) [Compound 221] | 67.6 nM |
| CC(=O)N1CCN(c2ncc(C(CNC(=O)c3cccc4nc(N5CCCC5)ccc34)N3CCC(F)(F)CC3)cn2)CC1 (stereo not shown) [Compound 222] | 66.1 nM |
| O=C(NCC(c1cnc(N2CCNCC2)nc1)N1CCC(F)(F)CC1)c1cccc2nc(NCC3CC3)ccc12 (stereo not shown) [Compound 223] | 195 nM |
| O=C(NCC(c1cnc(N2CCOCC2)nc1)N1CCC(F)(F)CC1)c1cccc2nc(N3CCCC3)ccc12 (stereo not shown) [Compound 224] | 115 nM |
| O=C(NCC(c1cnc(N2CCCC2)nc1)N1CCC(F)(F)CC1)c1cccc2nc(N3CCCC3)ccc12 (stereo not shown) [Compound 225] | 102 nM |
| Nc1ncc(C(CNC(=O)c2cccc3nc(N4CCCC4)ccc23)N2CCC(F)(F)CC2)cn1 (stereo not shown) [Compound 226] | 162 nM |
| CC(C)Oc1ncc(C(CNC(=O)c2cccc3nc(NCC4CC4)ccc23)N2CCOCC2)cn1 (stereo not shown) [Compound 227] | 33.1 nM |
| CCOc1ncc(C(CNC(=O)c2cccc3nc(N4CCOCC4)ccc23)N2CCOCC2)cn1 (stereo not shown) [Compound 228] | 51.3 nM |
| CCOc1ncc(C(CNC(=O)c2cccc3nc(NC4CC4)ccc23)N2CCOCC2)cn1 (stereo not shown) [Compound 229] | 69.2 nM |
| CC(C)c1ncc(C(CNC(=O)c2cccc3nc(N4CCOCC4)ccc23)N2CCOCC2)cn1 (stereo not shown) [Compound 230] | 141 nM |
| CC(C)c1ncc(C(CNC(=O)c2cccc3nc(NC4CC4)ccc23)N2CCOCC2)cn1 (stereo not shown) [Compound 231] | 115 nM |

| Compound | IC50 |
| --- | --- |
| CN(C)c1ncc(C(CNC(=O)c2cccc3nc(N4CCOCC4)ccc23)N2CCOCC2)cn1 (stereo not shown) [Compound 232] | 170 nM |
| CN(C)c1ncc(C(CNC(=O)c2cccc3nc(NC4CC4)ccc23)N2CCOCC2)cn1 (stereo not shown) [Compound 233] | 148 nM |
| O=C(NCC(c1cnc(OCC2CC2)nc1)N1CCC(F)(F)CC1)c1cccc2nc(NCC3CC3)ccc12 (stereo not shown) [Compound 234] | 26.9 nM |
| CC(C)Oc1ncc(C(CNC(=O)c2cccc3nc(N4CCOCC4)ccc23)N2CCC(F)(F)CC2)cn1 (stereo not shown) [Compound 235] | 56.2 nM |
| CC(C)Oc1ncc(C(CNC(=O)c2cccc3nc(NC4CC4)ccc23)N2CCC(F)(F)CC2)cn1 (stereo not shown) [Compound 236] | 34.7 nM |
| O=C(NCC(c1cnc(-c2ccccc2)nc1)N1CCC(F)(F)CC1)c1cccc2nc(NCC3CC3)ccc12 (stereo not shown) [Compound 237] | 89.1 nM |
| O=C(NCC(c1cnc(C2CCCC2)nc1)N1CCC(F)(F)CC1)c1cccc2nc(NC3CC3)ccc12 (stereo not shown) [Compound 238] | 38.9 nM |
| O=C(NCC(c1cnc(OC2CCC2)nc1)N1CCC(F)(F)CC1)c1cccc2nc(N3CCOCC3)ccc12 (stereo not shown) [Compound 239] | 53.7 nM |
| CC(=O)N1CCN(c2ncc(C(CNC(=O)c3cccc4nc(NCC5CC5)ccc34)N3CCC(F)(F)CC3)cn2)CC1 (stereo not shown) [Compound 240] | 57.5 nM |
| CC(C)Oc1ncc(C(CNC(=O)c2cccc3nc(N4CCOCC4)ccc23)N2CCOCC2)cn1 (stereo not shown) [Compound 241] | 117 nM |
| CC(C)Oc1ncc(C(CNC(=O)c2cccc3nc(NC4CC4)ccc23)N2CCOCC2)cn1 (stereo not shown) [Compound 242] | 115 nM |
| CCOc1ncc(C(CNC(=O)c2cccc3nc(NCC4CC4)ccc23)N2CCOCC2)cn1 (stereo not shown) [Compound 243] | 50.1 nM |
| CC(C)c1ncc(C(CNC(=O)c2cccc3nc(NCC4CC4)ccc23)N2CCOCC2)cn1 (stereo not shown) [Compound 244] | 79.4 nM |
| CN(C)c1ncc(C(CNC(=O)c2cccc3nc(NCC4CC4)ccc23)N2CCOCC2)cn1 (stereo not shown) [Compound 245] | 170 nM |
| O=C(NCC(c1cnc(OCC2CC2)nc1)N1CCC(F)(F)CC1)c1cccc2nc(N3CCOCC3)ccc12 (stereo not shown) [Compound 246] | 32.4 nM |
| O=C(NCC(c1cnc(OCC2CC2)nc1)N1CCC(F)(F)CC1)c1cccc2nc(NC3CC3)ccc12 (stereo not shown) [Compound 247] | 20.9 nM |
| CC(C)Oc1ncc(C(CNC(=O)c2cccc3nc(NCC4CC4)ccc23)N2CCC(F)(F)CC2)cn1 (stereo not shown) [Compound 248] | 33.1 nM |
| O=C(NCC(c1cnc(C2CCCC2)nc1)N1CCC(F)(F)CC1)c1cccc2nc(N3CCOCC3)ccc12 (stereo not shown) [Compound 249] | 51.3 nM |
| CC(=O)N1CCN(c2ncc(C(CNC(=O)c3cccc4nc(N5CCOCC5)ccc34)N3CCC(F)(F)CC3)cn2)CC1 (stereo not shown) [Compound 250] | 77.6 nM |

Results, then the compound that gave them:

| IC50 | Compound |
| --- | --- |
| 64.6 nM | CC(=O)N1CCN(c2ncc(C(CNC(=O)c3cccc4nc(NC5CC5)ccc34)N3CCC(F)(F)CC3)cn2)CC1 (stereo not shown) [Compound 251] |
| 49 nM | O=C(NCC(c1cnc(N2CCOCC2)nc1)N1CCC(F)(F)CC1)c1cccc2nc(NCC3CC3)ccc12 (stereo not shown) [Compound 252] |
| 36.3 nM | CCOc1ncc(C(CNC(=O)c2cccc3nc(N4CCOCC4)ccc23)N2CCC(F)(F)CC2)cn1 (stereo not shown) [Compound 253] |
| 29.5 nM | CCOc1ncc(C(CNC(=O)c2cccc3nc(NC4CC4)ccc23)N2CCC(F)(F)CC2)cn1 (stereo not shown) [Compound 254] |
| 44.7 nM | O=C(NCC(c1cncnc1)N1CCC(F)(F)CC1)c1cccc2nc(NC3CC3)ccc12 (stereo not shown) [Compound 256] |
| 26.3 nM | CCOc1ncc(C(CNC(=O)c2cccc3nc(NCC4CC4)ccc23)N2CCC(F)(F)CC2)cn1 (stereo not shown) [Compound 257] |
| 44.7 nM | CC(C)c1ncc(C(CNC(=O)c2cccc3nc(NCC4CC4)ccc23)N2CCC(F)(F)CC2)cn1 (stereo not shown) [Compound 258] |
| 97.7 nM | O=C(NCC(c1cnc(N2CCCC2)nc1)N1CCOCC1)c1cccc2nc(NC3CC3)ccc12 (stereo not shown) [Compound 259] |
| 27.5 nM | COc1ncc(C(CNC(=O)c2cccc3nc(NCC4CC4)ccc23)N2CCC(F)(F)CC2)cn1 (stereo not shown) [Compound 260] |
| 37.2 nM | CC(C)c1ncc(C(CNC(=O)c2cccc3nc(NC4CC4)ccc23)N2CCC(F)(F)CC2)cn1 (stereo not shown) [Compound 261] |
| 56.2 nM | O=C(NCC(c1cnc(N2CCCC2)nc1)N1CCC(F)(F)CC1)c1cccc2nc(NCC3CC3)ccc12 (stereo not shown) [Compound 262] |
| 37.2 nM | O=C(NCC(c1cnc(NC2CC2)nc1)N1CCC(F)(F)CC1)c1cccc2nc(NCC3CC3)ccc12 (stereo not shown) [Compound 263] |
| 77.6 nM | O=C(NCC(c1cnc(N2CCCC2)nc1)N1CCOCC1)c1cccc2nc(NCC3CC3)ccc12 (stereo not shown) [Compound 264] |
| 64.6 nM | CC(C)c1ncc(C(CNC(=O)c2cccc3nc(N4CCOCC4)ccc23)N2CCC(F)(F)CC2)cn1 (stereo not shown) [Compound 265] |
| 50.1 nM | CN(C)c1ncc(C(CNC(=O)c2cccc3nc(NCC4CC4)ccc23)N2CCC(F)(F)CC2)cn1 (stereo not shown) [Compound 266] |
| 115 nM | Nc1ncc(C(CNC(=O)c2cccc3nc(NCC4CC4)ccc23)N2CCC(F)(F)CC2)cn1 (stereo not shown) [Compound 267] |
| 33.1 nM | O=C(NCC(c1cncnc1)N1CCC(F)(F)CC1)c1cccc2nc(N3CCOCC3)ccc12 (stereo not shown) [Compound 268] |
| 229 nM | O=C(NCC(c1cnc(N2CCOCC2)nc1)N1CCC(F)(F)CC1)c1cccc2nc(N3CCOCC3)ccc12 (stereo not shown) [Compound 269] |
| 102 nM | O=C(NCC(c1cnc(NC2CC2)nc1)N1CCC(F)(F)CC1)c1cccc2nc(NC3CC3)ccc12 (stereo not shown) [Compound 270] |
| 107 nM | CC1CN(c2ccc3c(C(=O)NCC(c4cnc(C(F)(F)F)nc4)N4CCOCC4)cccc3n2)CCN1 (stereo not shown) [Compound 271] |
| 60.3 nM | CC(C)N(C)c1ccc2c(C(=O)NCC(c3cnc(C(F)(F)F)nc3)N3CCOCC3)cccc2n1 (stereo not shown) [Compound 272] |
| 112 nM | CC1(C)CCN(c2ccc3c(C(=O)NCC(c4cnc(C(F)(F)F)nc4)N4CCOCC4)cccc3n2)CC1 (stereo not shown) [Compound 273] |
| 145 nM | CCC1CN(c2ccc3c(C(=O)NCC(c4cnc(C(F)(F)F)nc4)N4CCOCC4)cccc3n2)CCN1 (stereo not shown) [Compound 274] |
